Measurements from patent US10906915B2, “Substituted pyrazoloazepin-4-ones and their use as phosphodiesterase inhibitors” (LEO Pharma A/S, priority 2016, dated 2021).

biological target: human PDE4D catalytic domain (UniProt no. Q08499) (Homo sapiens (Human), UniProt Q08499); assay: PDE4 assay (TR-FRET, FAM-cAMP cleavage); format: biochemical; conditions: human PDE4D catalytic domain; molar concentration giving 50% inhibition of substrate cleavage; read-out: PDE4 IC50 range
Procedure, shortened: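 Read-out is time-resolved FRET from Tb donor to FAM-AMP captured on trivalent-metal nanoparticles added to stop the reaction. Substrate was a mix of plain and FAM-labelled cAMP, cleaved by human PDE4D catalytic domain ([…]) with titrated compound; IC50 ranges (nM) versus controls.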

human PDE4D catalytic domain, sequence (Q08499 380-740 limits assumed): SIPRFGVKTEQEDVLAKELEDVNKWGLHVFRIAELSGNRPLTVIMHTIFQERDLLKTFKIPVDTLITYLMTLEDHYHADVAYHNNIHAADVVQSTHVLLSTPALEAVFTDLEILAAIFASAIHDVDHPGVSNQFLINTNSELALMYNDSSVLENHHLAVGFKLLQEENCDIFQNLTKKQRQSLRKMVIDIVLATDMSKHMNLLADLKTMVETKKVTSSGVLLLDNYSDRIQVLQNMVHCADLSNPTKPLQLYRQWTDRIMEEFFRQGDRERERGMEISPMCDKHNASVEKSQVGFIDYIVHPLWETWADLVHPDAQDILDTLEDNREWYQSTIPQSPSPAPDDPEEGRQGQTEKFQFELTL

Question: Which IC50 does the source give for CCc1nn(CCCOC(=O)c2ccc(C)c(F)c2)c2c1C(=O)NCC1(CCOCC1)C2 [Example 32, 3-(3-ethyl-4-oxo-spiro[6,8-dihydro-5H-pyrazolo[4,3-c]azepine-7,4′-tetrahydropyran]-1-yl)propyl 3-fluoro-4-methyl-benzoate] here?
Answer: < 100 nM

Question: How did the IC50 turn out when CCc1nn(C[C@@H](C)COC(=O)c2cccc(S(=O)(=O)CC)c2)c2c1C(=O)NCC1(CCOCC1)C2 [Example 226, [(2R)-3-(3-ethyl-4-oxo-spiro[6,8-dihydro-5H-pyrazolo[4,3-c]azepine-7,4′-tetrahydropyran]-1-yl)-2-methyl-propyl] 3-ethylsulfonylbenzoate] was run?
Answer: < 100 nM

Question: For CCc1nn(C[C@@H](C)COC(=O)c2ccc(F)cc2C(F)(F)F)c2c1C(=O)NCC1(CCOCC1)C2 [Example 222, [(2R)-3-(3-ethyl-4-oxo-spiro[6,8-dihydro-5H-pyrazolo[4,3-c]azepine-7,4′-tetrahydropyran]-1-yl)-2-methyl-propyl] 4-fluoro-2-(trifluoromethyl)benzoate], which IC50 is on record?
Answer: < 100 nM

Question: Which IC50 does the source give for CCc1nn(CCCOC(=O)c2c(C)cccc2F)c2c1C(=O)NCC1(CCOCC1)C2 [Example 39, 3-(3-ethyl-4-oxo-spiro[6,8-dihydro-5H-pyrazolo[4,3-c]azepine-7,4′-tetrahydropyran]-1-yl)propyl 2-fluoro-6-methyl-benzoate] here?
Answer: < 100 nM

Question: How did the IC50 turn out when CCc1nn(CCCOC(=O)c2cccc(C(=O)NC(C)C)c2)c2c1C(=O)NCC1(CCOCC1)C2 [Example 154, 3-(3-ethyl-4-oxo-spiro[6,8-dihydro-5H-pyrazolo[4,3-c]azepine-7,4′-tetrahydropyran]-1-yl)propyl 3-(isopropylcarbamoyl)-benzoate] was run?
Answer: < 100 nM

Question: Which IC50 does the source give for CCc1nn(CCCOC(=O)c2ccc(C(F)(F)F)c(C(F)(F)F)c2)c2c1C(=O)NCC1(CCOCC1)C2 [Example 136, 3-(3-ethyl-4-oxo-spiro[6,8-dihydro-5H-pyrazolo[4,3-c]azepine-7,4′-tetrahydropyran]-1-yl)propyl 3,4-bis(trifluoromethyl) benzoate] here?
Answer: < 100 nM

Question: How did the IC50 turn out when CCc1nn(CCCOC(=O)c2ccc(C(=O)NC(C)C)cc2)c2c1C(=O)NCC1(CCOCC1)C2 [Example 144, 3-(3-ethyl-4-oxo-spiro[6,8-dihydro-5H-pyrazolo[4,3-c]azepine-7,4′-tetrahydropyran]-1-yl)propyl 4-(isopropylcarbamoyl)-benzoate] was run?
Answer: < 100 nM

Question: Which IC50 does the source give for CCc1nn(CCCOC(=O)c2ccccc2Cl)c2c1C(=O)NCC1(CCOCC1)C2 [Example 40, 3-(3-ethyl-4-oxo-spiro[6,8-dihydro-5H-pyrazolo[4,3-c]azepine-7,4′-tetrahydropyran]-1-yl)propyl 2-chlorobenzoate] here?
Answer: < 100 nM

Question: Which IC50 does the source give for CCc1nn(C[C@@H](C)COC(=O)c2ccc(C#N)c(F)c2)c2c1C(=O)NCC1(CCOCC1)C2 [Example 185, [(2R)-3-(3-ethyl-4-oxo-spiro[6,8-dihydro-5H-pyrazolo[4,3-c]azepine-7,4′-tetrahydropyran]-1-yl)-2-methyl-propyl] 4-cyano-3-fluoro-benzoate] here?
Answer: < 100 nM

Question: Which IC50 does the source give for CCc1nn(C[C@@H](C)COC(=O)c2ccc(C)c(C)c2)c2c1C(=O)NCC1(CCOCC1)C2 [Example 169, [(2R)-3-(3-ethyl-4-oxo-spiro[6,8-dihydro-5H-pyrazolo[4,3-c]azepine-7,4′-tetrahydropyran]-1-yl)-2-methyl-propyl] 3,4-dimethylbenzoate] here?
Answer: < 100 nM

Question: How did the IC50 turn out when CCc1nn(C[C@@H](C)COC(=O)C(CC)CC)c2c1C(=O)NCC1(CCOCC1)C2 [Example 162, [(2R)-3-(3-ethyl-4-oxo-spiro[6,8-dihydro-5H-pyrazolo[4,3-c]azepine-7,4′-tetrahydropyran]-1-yl)-2-methyl-propyl] 2-ethylbutanoate] was run?
Answer: < 100 nM

Question: How did the IC50 turn out when CCc1nn(C[C@@H](C)COC(=O)c2ccc(F)cc2)c2c1C(=O)NCC1(CCOCC1)C2 [Example 166, [(2R)-3-(3-ethyl-4-oxo-spiro[6,8-dihydro-5H-pyrazolo[4,3-c]azepine-7,4′-tetrahydropyran]-1-yl)-2-methyl-propyl] 4-fluorobenzoate] was run?
Answer: < 100 nM

Question: CCc1nn(CCCOC(=O)c2cccc(F)c2F)c2c1C(=O)NCC1(CCOCC1)C2 [Example 45, 3-(3-ethyl-4-oxo-spiro[6,8-dihydro-5H-pyrazolo[4,3-c]azepine-7,4′-tetrahydropyran]-1-yl)propyl 2,3-difluorobenzoate] was tested. Which IC50 did it give?
Answer: < 100 nM

Question: With CCc1nn(CCCOC(=O)c2cccc(OC)c2)c2c1C(=O)NCC1(CCOCC1)C2 [Example 29, 3-(3-ethyl-4-oxo-spiro[6,8-dihydro-5H-pyrazolo[4,3-c]azepine-7,4′-tetrahydropyran]-1-yl)propyl 3-methoxybenzoate] as the compound, how does the IC50 read?
Answer: < 100 nM

Question: For CCc1nn(CCCOC(=O)C2CCCC2)c2c1C(=O)NCC1(CCOCC1)C2 [Example 9, 3-(3-ethyl-4-oxo-spiro[6,8-dihydro-5H-pyrazolo[4,3-c]azepine-7,4′-tetrahydropyran]-1-yl)propyl cyclopentanecarboxylate], which IC50 is on record?
Answer: < 100 nM

Question: CCc1nn(CCCOC(=O)c2cccc(S(C)(=O)=O)c2)c2c1C(=O)NCC1(CCOCC1)C2 [Example 99, 3-(3-ethyl-4-oxo-spiro[6,8-dihydro-5H-pyrazolo[4,3-c]azepine-7,4′-tetrahydropyran]-1-yl)propyl 3-methylsulfonylbenzoate] was tested. Which IC50 did it give?
Answer: < 100 nM

Question: With CCc1nn(C[C@@H](C)COC(=O)c2ccc(C(=O)N3CCCCC3)cc2)c2c1C(=O)NCC1(CCOCC1)C2 [Example 258, [(2R)-3-(3-ethyl-4-oxo-spiro[6,8-dihydro-5H-pyrazolo[4,3-c]azepine-7,4′-tetrahydropyran]-1-yl)-2-methyl-propyl] 4-(piperidine-1-carbonyl)benzoate] as the compound, how does the IC50 read?
Answer: < 100 nM

Question: Which IC50 does the source give for CCc1nn(CCCOC(=O)c2ccc(C#N)cc2)c2c1C(=O)NCC1(CCOCC1)C2 [Example 24, 3-(3-ethyl-4-oxo-spiro[6,8-dihydro-5H-pyrazolo[4,3-c]azepine-7,4′-tetrahydropyran]-1-yl)propyl 4-cyanobenzoate] here?
Answer: < 100 nM

same assay, conditions: read-out: PDE4 IC50 range

Question: For CCc1nn(CCCCOC(=O)c2cccc(C)c2)c2c1C(=O)NCC1(CCOCC1)C2 [Example 364, 4-(3-ethyl-4-oxo-spiro[6,8-dihydro-5H-pyrazolo[4,3-c]azepine-7,4′-tetrahydropyran]-1-yl)butyl 3-methylbenzoate], which IC50 is on record?
Answer: < 100 nM

Question: CCc1nn(CCCCOC(=O)c2ccc(S(=O)(=O)C3CCCC3)cc2)c2c1C(=O)NCC1(CCOCC1)C2 [Example 376, 4-(3-ethyl-4-oxo-spiro[6,8-dihydro-5H-pyrazolo[4,3-c]azepine-7,4′-tetrahydropyran]-1-yl)butyl 4-cyclopentylsulfonylbenzoate] was tested. Which IC50 did it give?
Answer: 100 to 500 nM

Question: CCc1nn(CC(C)(C)COC(=O)c2ccc(C#N)cc2)c2c1C(=O)NCC1(CCOCC1)C2 [Example 288, [3-(3-ethyl-4-oxo-spiro[6,8-dihydro-5H-pyrazolo[4,3-c]azepine-7,4′-tetrahydropyran]-1-yl)-2,2-dimethyl-propyl] 4-cyanobenzoate] was tested. Which IC50 did it give?
Answer: < 100 nM

Question: CCc1nn(C[C@H](C)COC(=O)c2ccc(C)cc2)c2c1C(=O)NCC1(CCOCC1)C2 [Example 275, [(2S)-3-(3-ethyl-4-oxo-spiro[6,8-dihydro-5H-pyrazolo[4,3-c]azepine-7,4′-tetrahydropyran]-1-yl)-2-methyl-propyl] 4-methylbenzoate] was tested. Which IC50 did it give?
Answer: < 100 nM
